Test results: US20240000803A1, “ORAL FORMULATION OF BIOLOGICALLY ACTIVE MATERIAL CONJUGATE HAVING BIOTIN MOIETY, FATTY ACID MOIETY, OR COMBINATION THEREOF COUPLED THERETO” (D&D Pharmatech Inc., priority 2020, published 2024)
Where no end group is shown, it is not given here. [ ]: non-standard residue; d: D form. The star is where a group is joined. Biotin = O=C1N[C@H]2[C@H](CS[C@H]2CCCCC(=O)*)N1; F11 = C18-Glu-EG2-EG2-NHS; Aib = CC(C)(N)C(=O)O

Tested on: not listed separately
Test: Weight reduction and feed intake reduction over 24 hours after oral administration
Type: in vivo
Details: mice, formulation with sodium chenodeoxycholate and propyl gallate (Table 13)
Method: Physiologically active substances bound to a biotin moiety, fatty acid moiety or a combination thereof, prepared in accordance with the above example, were formulated by dissolving in a vehicle (0.02% polysorbate 80 in 10 mM PBS (pH 7.4)) with the compositions of excipients shown in Table 13, then administered orally to mice. Weight reduction and feed intake reduction were measured over 24 hours.

| Substance | Weight loss compared to untreated group (%) |
| --- | --- |
| Conjugate 33: Polypeptide SEQ ID NO 24 (amylin derivative) with biotin moiety B38 at K1 (K(Biotin)CNTATCATQRLANFLVHSSNNFGPILPPTNVGSNTY; ends and bridges not checked) | −4.07 ± 1.30 |
| Conjugate 36: Polypeptide SEQ ID NO 26 (amylin derivative) with biotin moiety B38 at K1 (K(Biotin)CNTATCATQRLADFLRHSSPNFGAIPSSTNVGSRTY; ends and bridges not checked) | −4.53 ± 0.86 |
| Conjugate 39: Polypeptide SEQ ID NO 28 (amylin derivative) with biotin moiety B38 at K1 (K(Biotin)CNTATCATQRLADFLRHSSNNFGAIPSSTNVGSRTY; ends and bridges not checked) | −1.99 ± 0.94 |
| Conjugate 61: Polypeptide SEQ ID NO 24 with biotin moiety B38 at K1 and fatty acid moiety F11 at K1 (KCNTATCATQRLANFLVHSSNNFGPILPPTNVGSNTY; not fully specified (residue 1); ends and bridges not checked; also: biotin B38 and fatty acid F11 both at K1, attachment sites not given here) | −2.96 ± 4.22 |
| Conjugate 62: Polypeptide SEQ ID NO 26 with biotin moiety B38 at K1 and fatty acid moiety F11 at K1 (KCNTATCATQRLADFLRHSSPNFGAIPSSTNVGSRTY; not fully specified (residue 1); ends and bridges not checked; also: biotin B38 and fatty acid F11 both at K1, attachment sites not given here) | −3.32 ± 1.31 |
| Conjugate 63: Polypeptide SEQ ID NO 28 with biotin moiety B38 at K1 and fatty acid moiety F11 at K1 (KCNTATCATQRLADFLRHSSNNFGAIPSSTNVGSRTY; not fully specified (residue 1); ends and bridges not checked; also: biotin B38 and fatty acid F11 both at K1, attachment sites not given here) | −2.41 ± 0.78 |
| Conjugate 64: Polypeptide SEQ ID NO 30 with biotin moiety B38 at K35 and fatty acid moiety F11 at K1 (RCNTATCATQRLADFLRHSSNNFGAIPSSTNVGSK(Biotin)TY; ends and bridges not checked; also: fatty acid F11 at K1, but residue 1 is R) | −3.38 ± 1.26 |
| Polypeptide SEQ ID NO: 24: amylin derivative KCNTATCATQRLANFLVHSSNNFGPILPPTNVGSNTY (Amylin derivative) [reference compound] | −2.63 ± 1.06 |
| Polypeptide SEQ ID NO: 26: amylin derivative KCNTATCATQRLADFLRHSSPNFGAIPSSTNVGSRTY (Amylin derivative) [reference compound] | −3.13 ± 1.05 |
| Polypeptide SEQ ID NO: 28: amylin derivative KCNTATCATQRLADFLRHSSNNFGAIPSSTNVGSRTY (Amylin derivative) [reference compound] | −1.11 ± 0.84 |
| Polypeptide SEQ ID NO: 30: amylin derivative RCNTATCATQRLADFLRHSSNNFGAIPSSTNVGSKTY (Amylin derivative) [reference compound] | −1.17 ± 0.76 |

Tested on: glycated hemoglobin
Test: Glycated hemoglobin change after oral administration once daily over 3 weeks (Conjugate 56)
Type: in vivo
Details: mice, oral once daily 3 weeks, formulation with one bile acid and propyl gallate
Method: Physiologically active substances bound to a biotin moiety prepared in accordance with the above example were formulated by dissolving in a vehicle with the compositions of excipients shown in Table 23. These were orally administered to mice once daily over 3 weeks, and changes in glycated hemoglobin were measured.

| Substance | glycated hemoglobin reduction effect |
| --- | --- |
| Conjugate 56: Polypeptide SEQ ID NO 40 (glucagon derivative) with biotin moiety B38 at K12 and fatty acid moiety F11 at K30 (H[Aib]QGTFTSDYSK(Biotin)YLDEQAAKEFVQWLMNTK(F11)) | exhibited a glycated hemoglobin reduction effect |

Same assay, conditions: mice, oral once daily over 3 weeks, 1.343 mg/kg; sCDC 68 mg/kg, PG 34 mg/kg

| Substance | ΔGlycated Hemoglobin [%] |
| --- | --- |
| Conjugate 56: Polypeptide SEQ ID NO 40 (glucagon derivative) with biotin moiety B38 at K12 and fatty acid moiety F11 at K30 (H[Aib]QGTFTSDYSK(Biotin)YLDEQAAKEFVQWLMNTK(F11)) | −0.47 ± 0.34 |

Same assay, conditions: mice, oral once daily over 3 weeks, 4.475 mg/kg; sCDC 68 mg/kg, PG 34 mg/kg

| Substance | ΔGlycated Hemoglobin [%] |
| --- | --- |
| Conjugate 56: Polypeptide SEQ ID NO 40 (glucagon derivative) with biotin moiety B38 at K12 and fatty acid moiety F11 at K30 (H[Aib]QGTFTSDYSK(Biotin)YLDEQAAKEFVQWLMNTK(F11)) | −0.98 ± 0.67 |
